Data: patent US11021481B2, “Substituted isoindolin-1-ones and 2,3-dihydro-1h-pyrrolo[3,4-c]pyridin-1-ones as HPK1 antagonists” (Nimbus Saturn, Inc., priority 2019, dated 2021)

biological target: HPK1 (Homo sapiens (Human), UniProt Q92918); assay: HPK1 biochemical enzyme assay (microfluidic mobility shift assay); settings: 1.5 nM HPK1, ATP 1 mM final, 30 min preincubation, 60 min at RT, Caliper EZ Reader; read-out: HPK1 1000UMATP caliper IC50
Procedure, shortened: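 Ten-point compound titrations (top 3 μM final) preincubated 30 min with HPK1 and substrate, then reaction started with 1 mM ATP and 1 μM substrate, 5 mM MgCl2. After 60 min at RT, reaction terminated and product measured by microfluidic mobility shift.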

Chain of HPK1 (Q92918 whole entry): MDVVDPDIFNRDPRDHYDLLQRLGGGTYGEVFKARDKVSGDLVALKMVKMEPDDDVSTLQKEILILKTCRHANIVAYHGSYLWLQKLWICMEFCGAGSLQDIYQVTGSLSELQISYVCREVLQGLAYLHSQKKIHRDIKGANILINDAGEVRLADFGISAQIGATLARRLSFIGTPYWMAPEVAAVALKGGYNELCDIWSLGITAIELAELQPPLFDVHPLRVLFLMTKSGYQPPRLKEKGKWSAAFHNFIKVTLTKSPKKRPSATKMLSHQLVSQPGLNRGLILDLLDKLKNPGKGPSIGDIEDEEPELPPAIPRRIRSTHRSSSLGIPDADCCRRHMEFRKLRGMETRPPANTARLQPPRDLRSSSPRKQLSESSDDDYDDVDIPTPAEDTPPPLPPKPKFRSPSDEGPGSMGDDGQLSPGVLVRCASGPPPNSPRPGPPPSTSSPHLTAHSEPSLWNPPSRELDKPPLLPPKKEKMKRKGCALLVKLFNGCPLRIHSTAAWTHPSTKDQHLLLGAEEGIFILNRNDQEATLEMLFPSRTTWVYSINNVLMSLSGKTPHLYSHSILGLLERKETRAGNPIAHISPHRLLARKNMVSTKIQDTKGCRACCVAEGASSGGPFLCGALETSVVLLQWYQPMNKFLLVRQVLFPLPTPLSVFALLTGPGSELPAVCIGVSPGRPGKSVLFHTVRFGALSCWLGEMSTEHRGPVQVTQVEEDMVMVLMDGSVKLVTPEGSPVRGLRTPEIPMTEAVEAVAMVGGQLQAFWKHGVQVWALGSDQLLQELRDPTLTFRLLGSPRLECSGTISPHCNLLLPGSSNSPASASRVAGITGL

Row | Structure (SMILES) | IC50 [nM]
1 | Cc1nc(Nc2cnc(-c3ccnc4c3ccn4C)c3c2C(=O)NC3)ccc1N1CCN(C)CC1 [I-589, 4-(1-methyl-1H-pyrrolo[2,3-b]pyridin-4-yl)-7-((6-methyl-5-(4-methylpiperazin-1-yl)pyridin-2-yl)amino)-2.3-dihydro-1H-pyrrolo[3,4-c]pyridin-1-one] | < 100
2 | O=C1NCc2c(-c3ccnc4cnccc34)ncc(Nc3ccc(N4CCC(O)CC4)cn3)c21 [I-592, 7-((5-(4-hydroxypiperidin-1-yl)pyridin-2-yl)amino)-4-(1,7-naphthyridin-4-yl)-2,3-dihydro-1H-pyrrolo[3,4-c]pyridin-1-one] | > 1000
3 | CN(C)C[C@@H]1CN(c2ccc(Nc3ccc(-c4cnc5cc(Cl)ccn45)c4c3C(=O)NC4)nc2)CCO1 [I-593, (R)-4-(7-chloroimidazo [1,2-a]pyridin-3-yl)-7-((5-(2-((dimethylamino)-methyl)mor-pholino)pyridin-2-yl)amino)isoin-dolin-1-one] | < 100
4 | C[C@@H]1CC[C@@](C)(O)CN1c1ccc(Nc2ccc(-c3cnn4c3CCCC4)c3c2C(=O)NC3)nc1 [I-598, 7-((5-((2R,5R)-5-hydroxy-2,5-dimethyl-piperidin-1-yl)pyridin-2-yl)amino)-4-(4,5,6,7-tetrahydropyra-zolo[1,5-a]pyridin-3-yl)isoindolin-1-one] | < 100
5 | CN(C)C[C@@H]1CN(c2ccc(Nc3ccc(-c4cnc5cc(F)ccn45)c4c3C(=O)NC4)nc2)CCO1 [I-603, (R)-7-((5-(2-((dimethylamino)-methyl)mor-pholino)pyridin-2-yl)amino)-4-(7-fluoroimidazo [1,2-a]pyridin-3-yl)isoindolin-1-one] | < 100
6 | CN(C)C[C@H]1CN(c2ccc(Nc3ccc(-c4cnc5cc(F)ccn45)c4c3C(=O)NC4)nc2)CCO1 [I-604, (S)-7-((5-(2-((dimethylamino)-methyl)mor pholino)pyridin-2-yl)amino)-4-(7-fluoroimidazo [1,2-a]pyridin-3-yl)isoindolin-1-one] | < 100
7 | Cc1ccn2c(-c3ccc(Nc4ccc(CN5CCN(C)CC5)cn4)c4c3CNC4=O)cnc2c1F [I-605, 4-(8-fluoro-7-methylimidazo [1,2-a]pyridin-3-yl)-7-((5-((4-methylpiperazin-1-yl)methyl)pyri-din-2-yl)amino)isoin-dolin-1-one] | < 100
8 | O=C1NCc2c(-c3cnc4cc(C(F)F)ccn34)ccc(Nc3ccc(C4(O)CCOCC4)cn3)c21 [I-608, 4-(7-(difluoromethyl)-imidazo[1,2-a]pyridin-3-yl)-7-((5-(4-hydroxytetra-hydro-2H-pyran-4-yl)pyridin-2-yl)amino)isoin-dolin-1-one] | < 100
9 | O=C1NCc2c(-c3cnc4cc(C(F)F)ccn34)ccc(Nc3ccc([C@@]4(O)CCOC4)cn3)c21 [I-610, (S)-4-(7-(difluoromethyl)-imidazo[1,2-a]pyridin-3-yl)-7-((5-(3-hydroxytetra-hydrofuran-3-yl)pyridin-2-yl)amino)isoin-dolin-1-one] | < 100
10 | CO[C@@]1(CN(C)C)CCCN(c2ccc(Nc3ccc(-c4cnc5cc(F)ccn45)c4c3C(=O)NC4)nc2)C1 [I-611, (R)-7-((5-(3-((dimethylamino)-methyl)-3-methoxy-piperidin-1-yl)pyridin-2-yl)amino)-4-(7-fluoroimidazo [1,2-a]pyridin-3-yl)isoindolin-1-one] | < 100
11 | CO[C@]1(CN(C)C)CCCN(c2ccc(Nc3ccc(-c4cnc5cc(F)ccn45)c4c3C(=O)NC4)nc2)C1 [I-612, (S)-7-((5-(3-((dimethylamino)-methyl)-3-methoxy-piperidin-1-yl)pyridin-2-yl)amino)-4-(7-fluoroimidazo [1,2-a]pyridin-3-yl)isoindolin-1-one] | < 100
12 | CN1CC[C@]12CCN(c1cccc(Nc3cnc(-c4ccnc5c4ccn5C)c4c3C(=O)NC4)n1)C2 [I-615, (R)-7-((6-(1-methyl-1.6-diazaspiro[3,4]octan-6-yl)pyridin-2-yl)amino)-4-(1-methyl-1H-pyrrolo[2,3-b]pyridin-4-yl)-2,3-dihydro-1H-pyrrolo[3,4-c]pyridin-1-one] | 100 to 1000
13 | CN1CC[C@@]12CCN(c1cccc(Nc3cnc(-c4ccnc5c4ccn5C)c4c3C(=O)NC4)n1)C2 [I-616, (S)-7-((6-(1-methyl-1,6-diazaspiro[3,4]octan-6-yl)pyridin-2-yl)amino)-4-(1-methyl-1H-pyrrolo[2,3-b)pyridin-4-yl)-2,3-dihydro-1H-pyrrolo[3,4-c]pyridin-1-one] | < 100
14 | CN(C)C(C)(C)[C@@H]1CN(c2ccc(Nc3ccc(-c4cnc5cnccn45)c4c3C(=O)NC4)nc2)CCO1 [I-617, (S)-7-((5-(2-(2-(dimethylami-no)propan-2-yl)morpho-lino)pyridin-2-yl)amino)-4-(imidazo[1,2-a]pyrazin-3-yl)isoindolin-1-one] | < 100
15 | CN(C)C(C)(C)[C@H]1CN(c2ccc(Nc3ccc(-c4cnc5cnccn45)c4c3C(=O)NC4)nc2)CCO1 [I-618, (R)-7-((5-(2-(2-(dimethylami-no)propan-2-yl)morpho-lino)pyridin-2-yl)amino)-4-(imidazo[1,2-a]pyrazin-3-yl)isoindolin-1-one] | < 100

Continued, values first:

Row | IC50 [nM] | Structure (SMILES)
16 | < 100 | CC(C)(O)[C@H]1COCCN(c2ccc(Nc3ccc(-c4cnc5cc(F)ccn45)c4c3C(=O)NC4)nc2)C1 [I-626, (R)-4-(7-fluoroimidazo [1,2-a]pyridin-3-yl)-7-((5-(6-(2-hydroxypropan-2-yl)-1,4-oxazepan-4-yl)pyridin-2-yl)amino)isoin-dolin-1-one]
17 | < 100 | CC(C)(O)[C@@H]1COCCN(c2ccc(Nc3ccc(-c4cnc5cc(F)ccn45)c4c3C(=O)NC4)nc2)C1 [I-627, (S)-4-(7-fluoroimidazo [1,2-a]pyridin-3-yl)-7-((5-(6-(2-hydroxypropan-2-yl)-1,4-oxazepan-4-yl)pyridin-2-yl)amino)isoin-dolin-1-one]
18 | < 100 | CN1C[C@@H]2CCN(c3cccc(Nc4cnc(-c5ccnc6c5ccn6C)c5c4C(=O)NC5)n3)[C@@H]2C1 [I-630, 4-(1-methyl-1H-pyrrolo[2,3-b]pyridin-4-yl)-7-((6-((3aS, 6aS)-5-methylhexahy-dropyrrolo[3,4-b]pyrrol-1(2H)-yl)pyridin-2-yl)amino)-2,3-dihydro-1H-pyrrolo[3,4-c]pyridin-1-one]
19 | > 1000 | CN1C[C@H]2CCN(c3cccc(Nc4cnc(-c5ccnc6c5ccn6C)c5c4C(=O)NC5)n3)[C@H]2C1 [I-631, 4-(1-methyl-1H-pyrrolo[2,3-b]pyridin-4-yl)-7-((6-((3aR,6aR)-5-methylhexahy-dropyrrolo[3,4-b]pyrrol-1(2H)-yl)pyridin-2-yl)amino)-2,3-dihydro-1H-pyrrolo[3,4-c]pyridin-1-one]
20 | > 1000 | O=C1NCc2c(-c3cncn4ccnc34)ncc(Nc3ccc(N4CCC(O)CC4)cn3)c21 [I-632, 7-((5-(4-hydroxy-piperidin-1-yl)pyridin-2-yl)amino)-4-(imidazo[1,2-c]pyrimidin-8-yl)-2,3-dihydro-1H-pyrrolo[3,4-c]pyridin-1-one]
21 | < 100 | CN(C)Cc1cc(Nc2ccc(-c3cnc4cc(Cl)ccn34)c3c2C(=O)NC3)ncc1C1(O)CCOCC1 [I-633, 4-(7-chloroimidazo [1,2-a]pyridin-3-yl)-7-((4-((dimethylamino)-methyl)-5-(4-hydroxytetra-hydro-2H-pyran-4-yl)pyridin-2-yl)amino)isoin-dolin-1-one]
22 | < 100 | C[C@H](O)[C@H]1CN(c2ccc(Nc3ccc(-c4cnc5cc(F)ccn45)c4c3C(=O)NC4)nc2)CCO1 [I-634, 4-(7-fluoroimidazo[1,2-a]pyridin-3-yl)-7-((5-((R)-2-((S)-1-hydroxyethyl)morpholino)pyridin-2-yl)amino)isoindolin-1-one]
23 | < 100 | C[C@@H](O)[C@@H]1CN(c2ccc(Nc3ccc(-c4cnc5cc(F)ccn45)c4c3C(=O)NC4)nc2)CCO1 [I-635, 4-(7-fluoroimidazo[1,2-a]pyridin-3-yl)-7-((5-((S)-2-((R)-1-hydroxyethyl)morpholino)pyridin-2-yl)amino)isoindolin-1-one]
24 | < 100 | Cc1cc(Nc2cnc(-c3ccnc4c3ccn4C)c3c2C(=O)NC3)nc(N2CC[C@H]3CNC[C@H]32)c1 [I-641, 7-((6-((3aS.6aS)-hcxahydropyrr-olo[3,4-b]pyrrol-1(2H)-yl)-4-methylpyridin-2-yl)amino)-4-(1-methyl-1H-pyrrolo[2,3-b]pyridin-4-yl)-2,3-dihydro-1H-pyrrolo[3,4-c]pyridin-1-one]
25 | 100 to 1000 | Cc1cc(Nc2cnc(-c3ccnc4c3ccn4C)c3c2C(=O)NC3)nc(N2CC[C@@H]3CNC[C@@H]32)c1 [I-642, 7-((6-((3aR,6aR)-hcxahydropyrr-olo[3,4-b]pyrrol-1(2H)-yl)-4-methylpyridin-2-yl)amino)-4-(1-methyl-1H-pyrrolo[2,3-b]pyridin-4-yl)-2,3-dihydro-1H-pyrrolo[3,4-c]pyridin-1-one]
26 | < 100 | Cc1cc(Nc2cnc(-c3ccnc4c3ccn4C)c3c2C(=O)NC3)nc(N2CC[C@H]3CN(C)C[C@H]32)c1 [I-643, 4-(1-methyl-1H-pyrrolo[2,3-b]pyridin-4-yl)-7-((4-methyl-6-((3aS,6aS)-5-methylhcxahydropyrrolo[3,4-b]pyrrol-1(2H)-yl)pyridin-2-yl)amino)-2,3-dihydro-1H-pyrrolo[3,4-c]pyridin-1-one]
27 | 100 to 1000 | Cc1cc(Nc2cnc(-c3ccnc4c3ccn4C)c3c2C(=O)NC3)nc(N2CC[C@@H]3CN(C)C[C@@H]32)c1 [I-644, 4-(1-methyl-1H-pyrrolo[2,3-b]pyridin-4-yl)-7-((4-methyl-6-((3aR,6aR)-5-methylhexahydropyrrolo[3,4-b]pyrrol-1(2H)-yl)pyridin-2-yl)amino)-2,3-dihydro-1H-pyrrolo[3,4-c]pyridin-1-one]
28 | < 100 | Cc1ccn2c(-c3ccc(Nc4ccc(N5CCO[C@H](C(C)(C)O)C5)cn4)c4c3CNC4=O)cnc2n1 [I-645, (S)-7-((5-(2-(2-hydroxypropan-2-yl)morpliolino)pyridin-2-yl)amino)-4-(7-methylimidazo [1,2-a]pyrimidin-3-yl) isoindolin-1-one]
